Activity calls are given as the source filed them.
Experiments:
[1] = molecular target: T1, Sentrin-specific protease 8 (Homo sapiens, UniProt Q96LD8); assay type: functional
T1 sequence (Q96LD8 whole entry): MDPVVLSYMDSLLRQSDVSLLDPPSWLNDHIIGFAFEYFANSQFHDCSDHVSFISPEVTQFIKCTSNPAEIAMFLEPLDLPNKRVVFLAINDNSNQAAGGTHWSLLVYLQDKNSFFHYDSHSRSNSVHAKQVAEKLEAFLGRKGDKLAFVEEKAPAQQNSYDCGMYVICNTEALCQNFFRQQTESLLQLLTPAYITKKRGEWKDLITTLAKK

Protein RecA = molecular target: T2, Protein RecA (Mycobacterium tuberculosis, UniProt P9WHJ3); test: Fluorescence Cell-Free Homogeneous Dose Retest to Identify Inhibitors of RecA-Intein Splicing Activity. [Related pubchem assays (depositor defined):AID2097, AID2223, AID489010, AID492950]; assay type: functional
T2 sequence (P9WHJ3 whole entry): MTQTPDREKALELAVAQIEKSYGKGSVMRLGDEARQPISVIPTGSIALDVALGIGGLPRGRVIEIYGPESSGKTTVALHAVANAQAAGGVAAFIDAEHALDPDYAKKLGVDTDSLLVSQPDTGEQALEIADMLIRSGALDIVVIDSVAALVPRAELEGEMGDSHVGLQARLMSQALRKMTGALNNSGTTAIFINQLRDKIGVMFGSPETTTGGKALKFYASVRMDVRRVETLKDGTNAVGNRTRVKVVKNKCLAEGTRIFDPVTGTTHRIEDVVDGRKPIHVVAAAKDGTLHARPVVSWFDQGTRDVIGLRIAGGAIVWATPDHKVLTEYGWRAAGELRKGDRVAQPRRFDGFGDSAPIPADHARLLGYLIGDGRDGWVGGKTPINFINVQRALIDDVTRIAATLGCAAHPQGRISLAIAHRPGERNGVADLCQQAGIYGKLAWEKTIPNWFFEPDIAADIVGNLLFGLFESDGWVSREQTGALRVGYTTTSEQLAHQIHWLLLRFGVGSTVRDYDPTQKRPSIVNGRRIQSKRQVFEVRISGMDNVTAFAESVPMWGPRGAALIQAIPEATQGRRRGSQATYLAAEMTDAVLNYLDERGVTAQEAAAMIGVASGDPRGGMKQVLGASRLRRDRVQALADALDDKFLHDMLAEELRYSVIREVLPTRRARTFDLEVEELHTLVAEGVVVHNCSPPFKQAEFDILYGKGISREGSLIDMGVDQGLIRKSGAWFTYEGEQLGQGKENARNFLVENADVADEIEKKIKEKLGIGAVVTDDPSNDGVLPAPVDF

[2] = molecular target: T1, Sentrin-specific protease 8; assay type: functional; remark: listed apart in the source
Leucine aminopeptidase = molecular target: T3, Leucine aminopeptidase (Plasmodium falciparum 3D7, UniProt Q8IL11); test: P. falciparum M17LAP inhibitors, primary screen, biochemical, fluorogenic H-Leu-NHMec substrate, 1536-well (AID 1619); assay type: functional
T3 sequence (Q8IL11 whole entry): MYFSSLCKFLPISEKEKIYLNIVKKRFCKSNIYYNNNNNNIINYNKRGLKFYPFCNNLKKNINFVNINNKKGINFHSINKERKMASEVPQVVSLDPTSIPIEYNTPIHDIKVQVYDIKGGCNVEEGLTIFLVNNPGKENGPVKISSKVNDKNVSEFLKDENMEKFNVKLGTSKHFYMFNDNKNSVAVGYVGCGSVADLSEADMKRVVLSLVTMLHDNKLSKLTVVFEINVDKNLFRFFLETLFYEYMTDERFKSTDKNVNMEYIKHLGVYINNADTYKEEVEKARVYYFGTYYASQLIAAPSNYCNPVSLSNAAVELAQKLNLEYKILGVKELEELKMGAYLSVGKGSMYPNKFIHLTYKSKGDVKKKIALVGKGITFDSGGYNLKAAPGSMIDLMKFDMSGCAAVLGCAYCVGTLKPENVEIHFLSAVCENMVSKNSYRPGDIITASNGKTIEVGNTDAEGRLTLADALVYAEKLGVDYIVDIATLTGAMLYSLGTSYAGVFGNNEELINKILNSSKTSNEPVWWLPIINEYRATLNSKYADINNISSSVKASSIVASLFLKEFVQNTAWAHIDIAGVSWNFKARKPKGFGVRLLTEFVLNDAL

Aspartyl aminopeptidase = molecular target: T4, Aspartyl aminopeptidase (Plasmodium falciparum 3D7, UniProt Q8I2J3); test: Counterscreen for inhibitors of M1 and M17 aminopeptidases: QFRET-based biochemical high throughput dose response assay for inhibitors of the Plasmodium falciparum M18 Aspartyl Aminopeptidase (PFM18AAP). [Related PubChem assays: 1619 (Screening assay (M17LAP inhibitors).), 1445 (Screening assay (M1AAP inhibitors).)]
T4 sequence (Q8I2J3 whole entry): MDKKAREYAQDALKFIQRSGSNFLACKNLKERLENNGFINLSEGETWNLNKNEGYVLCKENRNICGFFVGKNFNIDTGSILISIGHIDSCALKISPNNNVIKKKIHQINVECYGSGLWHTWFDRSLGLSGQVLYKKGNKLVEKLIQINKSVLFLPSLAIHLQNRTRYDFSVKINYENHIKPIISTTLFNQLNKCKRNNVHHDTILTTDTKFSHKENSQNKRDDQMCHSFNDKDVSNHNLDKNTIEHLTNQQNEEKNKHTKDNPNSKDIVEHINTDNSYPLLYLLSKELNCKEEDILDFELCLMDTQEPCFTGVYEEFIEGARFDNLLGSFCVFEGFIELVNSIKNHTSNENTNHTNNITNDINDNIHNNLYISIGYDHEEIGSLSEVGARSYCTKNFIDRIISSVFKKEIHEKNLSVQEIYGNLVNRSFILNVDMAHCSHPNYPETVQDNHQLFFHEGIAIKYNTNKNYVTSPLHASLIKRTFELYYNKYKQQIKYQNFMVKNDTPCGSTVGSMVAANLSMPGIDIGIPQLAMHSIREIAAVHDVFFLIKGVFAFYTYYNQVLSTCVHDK

Procathepsin L = Procathepsin L (Homo sapiens, UniProt P07711); test: cathepsin L inhibitors, dose response, counter-screen for M1/M17 aminopeptidase inhibitor project, biochemical, QFRET, 1536-well (AID 2214)
Procathepsin L, sequence (P07711 whole entry): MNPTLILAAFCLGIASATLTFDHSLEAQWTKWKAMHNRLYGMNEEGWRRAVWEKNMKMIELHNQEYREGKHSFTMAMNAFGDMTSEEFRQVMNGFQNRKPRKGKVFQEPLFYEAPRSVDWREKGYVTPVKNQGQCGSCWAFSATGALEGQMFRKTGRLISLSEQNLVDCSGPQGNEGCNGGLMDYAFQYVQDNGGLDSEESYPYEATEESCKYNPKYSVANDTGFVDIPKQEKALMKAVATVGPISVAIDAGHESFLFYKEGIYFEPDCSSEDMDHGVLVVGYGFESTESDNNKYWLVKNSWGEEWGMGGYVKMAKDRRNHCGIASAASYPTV

[3] = molecular target: T5, Replicative DNA helicase DnaB (Mycobacterium tuberculosis, UniProt P9WMR3); test: DnaB intein splicing inhibitors, dose response, biochemical, cell-free fluorescence (AID 449749); assay type: functional
T5 sequence (P9WMR3 whole entry): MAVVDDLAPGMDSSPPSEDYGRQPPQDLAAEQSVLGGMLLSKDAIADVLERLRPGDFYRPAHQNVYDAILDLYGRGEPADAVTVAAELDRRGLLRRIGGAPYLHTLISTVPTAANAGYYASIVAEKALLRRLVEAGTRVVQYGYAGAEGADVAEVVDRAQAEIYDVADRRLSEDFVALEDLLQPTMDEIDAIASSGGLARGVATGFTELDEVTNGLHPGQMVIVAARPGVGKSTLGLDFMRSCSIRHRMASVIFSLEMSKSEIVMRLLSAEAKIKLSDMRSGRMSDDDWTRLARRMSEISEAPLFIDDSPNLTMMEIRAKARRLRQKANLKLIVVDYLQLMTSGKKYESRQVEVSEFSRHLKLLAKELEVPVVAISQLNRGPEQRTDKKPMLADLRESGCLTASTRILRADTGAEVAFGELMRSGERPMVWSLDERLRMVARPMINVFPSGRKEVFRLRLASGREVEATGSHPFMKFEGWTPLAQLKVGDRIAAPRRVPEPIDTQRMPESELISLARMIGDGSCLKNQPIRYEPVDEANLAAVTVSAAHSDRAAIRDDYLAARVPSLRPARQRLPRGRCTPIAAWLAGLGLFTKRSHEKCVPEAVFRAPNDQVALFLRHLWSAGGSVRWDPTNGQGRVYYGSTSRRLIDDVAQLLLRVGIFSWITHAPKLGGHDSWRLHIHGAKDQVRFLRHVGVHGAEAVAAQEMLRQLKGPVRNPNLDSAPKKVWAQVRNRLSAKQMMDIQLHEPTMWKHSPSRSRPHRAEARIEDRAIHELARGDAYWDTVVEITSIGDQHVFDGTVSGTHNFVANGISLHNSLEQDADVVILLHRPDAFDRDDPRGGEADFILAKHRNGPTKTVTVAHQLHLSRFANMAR

Estrogen receptor = Estrogen receptor (Homo sapiens, UniProt P03372);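 note: potency for inhibiting coactivator peptide recruitment to the receptor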
Estrogen receptor, sequence (P03372 whole entry): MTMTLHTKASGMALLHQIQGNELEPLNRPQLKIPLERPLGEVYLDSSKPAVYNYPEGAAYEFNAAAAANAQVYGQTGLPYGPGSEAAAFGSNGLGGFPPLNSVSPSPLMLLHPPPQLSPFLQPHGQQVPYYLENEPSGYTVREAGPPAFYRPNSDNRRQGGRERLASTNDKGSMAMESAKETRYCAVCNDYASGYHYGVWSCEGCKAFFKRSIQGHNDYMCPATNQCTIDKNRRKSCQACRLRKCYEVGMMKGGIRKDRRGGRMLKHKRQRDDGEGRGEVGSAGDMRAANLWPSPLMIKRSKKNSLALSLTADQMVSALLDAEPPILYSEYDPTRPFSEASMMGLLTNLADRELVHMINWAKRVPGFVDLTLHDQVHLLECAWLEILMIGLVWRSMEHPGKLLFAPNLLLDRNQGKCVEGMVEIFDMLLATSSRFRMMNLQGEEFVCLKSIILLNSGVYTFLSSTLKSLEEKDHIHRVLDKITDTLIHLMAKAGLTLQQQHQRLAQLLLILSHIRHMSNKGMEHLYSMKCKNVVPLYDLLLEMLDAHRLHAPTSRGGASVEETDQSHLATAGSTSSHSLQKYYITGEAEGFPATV

[4] = molecular target: T6, Dual specificity protein phosphatase 6 (Rattus norvegicus, UniProt Q64346); assay type: functional
T6 sequence (Q64346 whole entry): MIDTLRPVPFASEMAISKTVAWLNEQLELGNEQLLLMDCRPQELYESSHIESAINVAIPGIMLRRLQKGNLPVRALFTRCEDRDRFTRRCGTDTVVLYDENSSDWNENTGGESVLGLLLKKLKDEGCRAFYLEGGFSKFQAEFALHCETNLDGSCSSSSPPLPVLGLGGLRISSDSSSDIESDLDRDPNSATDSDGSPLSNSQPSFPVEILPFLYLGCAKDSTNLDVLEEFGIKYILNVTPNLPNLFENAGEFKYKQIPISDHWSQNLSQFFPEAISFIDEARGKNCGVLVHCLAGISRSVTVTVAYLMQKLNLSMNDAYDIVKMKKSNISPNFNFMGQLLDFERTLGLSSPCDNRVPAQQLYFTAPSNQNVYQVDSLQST

[5] = molecular target: Glyceraldehyde-3-phosphate dehydrogenase (Homo sapiens, UniProt P04406)
[6] = molecular target: Tyrosine-protein phosphatase non-receptor type 7 (Homo sapiens, UniProt P35236); assay type: functional
[7] = molecular target: T6, Dual specificity protein phosphatase 6
Protein skinhead-1 = molecular target: T7, Protein skinhead-1 (Caenorhabditis elegans, UniProt P34707); assay type: functional
T7 sequence (P34707 whole entry): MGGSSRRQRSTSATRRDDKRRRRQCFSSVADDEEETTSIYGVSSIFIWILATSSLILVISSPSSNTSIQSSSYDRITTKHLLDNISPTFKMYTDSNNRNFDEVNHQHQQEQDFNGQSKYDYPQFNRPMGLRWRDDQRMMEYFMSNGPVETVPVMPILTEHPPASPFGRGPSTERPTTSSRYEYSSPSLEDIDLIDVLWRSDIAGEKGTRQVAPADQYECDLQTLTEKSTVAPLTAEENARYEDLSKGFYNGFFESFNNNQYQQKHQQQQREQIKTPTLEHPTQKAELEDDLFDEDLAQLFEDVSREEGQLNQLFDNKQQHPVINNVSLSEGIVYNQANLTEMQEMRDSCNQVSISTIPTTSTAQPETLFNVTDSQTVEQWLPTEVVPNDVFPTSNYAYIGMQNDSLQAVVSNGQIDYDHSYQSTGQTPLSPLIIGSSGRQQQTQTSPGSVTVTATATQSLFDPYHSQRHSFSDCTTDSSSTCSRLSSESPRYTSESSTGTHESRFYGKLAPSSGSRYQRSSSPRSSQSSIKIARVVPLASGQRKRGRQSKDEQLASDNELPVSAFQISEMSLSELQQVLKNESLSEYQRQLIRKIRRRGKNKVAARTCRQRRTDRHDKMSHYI

[8] = molecular target: Peroxisome proliferator-activated receptor gamma/Nuclear receptor coactivator 2 (Homo sapiens, UniProt P37231); assay type: functional;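 note: agonist potency for raising coactivator recruitment to the receptor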
Peroxisome proliferator-activated receptor gamma/Nuclear receptor coactivator 2, sequence (P37231 whole entry): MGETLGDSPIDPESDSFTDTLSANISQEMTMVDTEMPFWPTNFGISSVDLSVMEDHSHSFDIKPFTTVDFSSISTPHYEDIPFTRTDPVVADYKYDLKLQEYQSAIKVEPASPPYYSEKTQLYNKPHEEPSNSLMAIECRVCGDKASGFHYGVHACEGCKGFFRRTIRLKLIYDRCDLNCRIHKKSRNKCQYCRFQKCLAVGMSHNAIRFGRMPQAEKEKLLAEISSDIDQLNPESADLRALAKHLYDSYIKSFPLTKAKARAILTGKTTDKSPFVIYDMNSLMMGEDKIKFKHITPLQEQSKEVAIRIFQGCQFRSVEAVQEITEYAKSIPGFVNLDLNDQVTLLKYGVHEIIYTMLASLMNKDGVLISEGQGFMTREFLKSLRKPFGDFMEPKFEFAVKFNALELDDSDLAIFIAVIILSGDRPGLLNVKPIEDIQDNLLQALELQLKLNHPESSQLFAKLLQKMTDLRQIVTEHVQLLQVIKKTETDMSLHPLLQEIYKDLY
Peroxisome proliferator-activated receptor gamma/Nuclear receptor coactivator 2, sequence (Q15596 whole entry, further chain): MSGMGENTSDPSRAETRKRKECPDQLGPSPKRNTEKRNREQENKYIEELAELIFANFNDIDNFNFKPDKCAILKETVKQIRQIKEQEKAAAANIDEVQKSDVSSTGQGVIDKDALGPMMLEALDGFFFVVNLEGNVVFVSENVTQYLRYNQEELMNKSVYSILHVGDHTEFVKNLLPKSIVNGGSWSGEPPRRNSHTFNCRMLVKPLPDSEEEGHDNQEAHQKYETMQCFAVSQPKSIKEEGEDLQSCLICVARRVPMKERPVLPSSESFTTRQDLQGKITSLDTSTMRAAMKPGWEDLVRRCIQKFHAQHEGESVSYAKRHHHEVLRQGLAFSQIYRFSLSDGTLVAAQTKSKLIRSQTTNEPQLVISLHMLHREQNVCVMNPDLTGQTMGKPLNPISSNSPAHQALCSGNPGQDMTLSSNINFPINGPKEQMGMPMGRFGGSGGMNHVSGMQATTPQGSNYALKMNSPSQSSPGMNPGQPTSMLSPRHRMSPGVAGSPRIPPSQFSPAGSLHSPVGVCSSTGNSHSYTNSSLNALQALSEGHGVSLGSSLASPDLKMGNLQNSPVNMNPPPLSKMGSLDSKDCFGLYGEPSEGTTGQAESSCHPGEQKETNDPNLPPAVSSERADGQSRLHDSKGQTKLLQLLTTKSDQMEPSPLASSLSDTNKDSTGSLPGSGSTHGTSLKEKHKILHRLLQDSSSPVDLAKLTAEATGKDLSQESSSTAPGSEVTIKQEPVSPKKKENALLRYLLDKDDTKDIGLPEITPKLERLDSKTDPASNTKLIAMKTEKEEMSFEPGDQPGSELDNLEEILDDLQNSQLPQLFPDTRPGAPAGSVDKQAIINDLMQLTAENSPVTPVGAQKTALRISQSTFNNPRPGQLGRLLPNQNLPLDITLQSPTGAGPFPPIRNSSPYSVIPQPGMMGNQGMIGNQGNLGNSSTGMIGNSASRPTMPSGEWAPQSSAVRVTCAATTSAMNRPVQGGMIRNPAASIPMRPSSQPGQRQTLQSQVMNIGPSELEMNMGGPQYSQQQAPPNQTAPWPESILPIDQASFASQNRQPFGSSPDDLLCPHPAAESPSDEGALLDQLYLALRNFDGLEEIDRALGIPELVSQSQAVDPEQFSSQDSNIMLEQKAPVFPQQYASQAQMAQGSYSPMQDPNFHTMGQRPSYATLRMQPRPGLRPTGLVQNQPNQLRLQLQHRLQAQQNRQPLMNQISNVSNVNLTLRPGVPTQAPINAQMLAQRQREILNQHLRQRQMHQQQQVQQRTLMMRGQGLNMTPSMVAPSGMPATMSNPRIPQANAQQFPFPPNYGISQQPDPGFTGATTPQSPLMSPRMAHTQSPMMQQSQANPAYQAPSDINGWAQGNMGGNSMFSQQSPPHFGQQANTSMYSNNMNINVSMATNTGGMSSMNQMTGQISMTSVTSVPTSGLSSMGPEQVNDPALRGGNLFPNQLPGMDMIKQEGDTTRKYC

[9] = molecular target: Peroxisome proliferator-activated receptor gamma/Nuclear receptor coactivator 1 (Homo sapiens, UniProt P37231); assay type: functional;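 note: agonist potency as compounds enhance coactivator SRC-1 recruitment to PPARgamma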
[10] = molecular target: Peroxisome proliferator-activated receptor gamma/Nuclear receptor coactivator 3 (Homo sapiens, UniProt P37231); assay type: functional;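 note: agonist potency for raising coactivator recruitment to the receptor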
Peroxisome proliferator-activated receptor gamma/Nuclear receptor coactivator 3, sequence (P37231 whole entry): as the sequence (P37231 whole entry) above
Peroxisome proliferator-activated receptor gamma/Nuclear receptor coactivator 3, sequence (Q9Y6Q9 whole entry, further chain): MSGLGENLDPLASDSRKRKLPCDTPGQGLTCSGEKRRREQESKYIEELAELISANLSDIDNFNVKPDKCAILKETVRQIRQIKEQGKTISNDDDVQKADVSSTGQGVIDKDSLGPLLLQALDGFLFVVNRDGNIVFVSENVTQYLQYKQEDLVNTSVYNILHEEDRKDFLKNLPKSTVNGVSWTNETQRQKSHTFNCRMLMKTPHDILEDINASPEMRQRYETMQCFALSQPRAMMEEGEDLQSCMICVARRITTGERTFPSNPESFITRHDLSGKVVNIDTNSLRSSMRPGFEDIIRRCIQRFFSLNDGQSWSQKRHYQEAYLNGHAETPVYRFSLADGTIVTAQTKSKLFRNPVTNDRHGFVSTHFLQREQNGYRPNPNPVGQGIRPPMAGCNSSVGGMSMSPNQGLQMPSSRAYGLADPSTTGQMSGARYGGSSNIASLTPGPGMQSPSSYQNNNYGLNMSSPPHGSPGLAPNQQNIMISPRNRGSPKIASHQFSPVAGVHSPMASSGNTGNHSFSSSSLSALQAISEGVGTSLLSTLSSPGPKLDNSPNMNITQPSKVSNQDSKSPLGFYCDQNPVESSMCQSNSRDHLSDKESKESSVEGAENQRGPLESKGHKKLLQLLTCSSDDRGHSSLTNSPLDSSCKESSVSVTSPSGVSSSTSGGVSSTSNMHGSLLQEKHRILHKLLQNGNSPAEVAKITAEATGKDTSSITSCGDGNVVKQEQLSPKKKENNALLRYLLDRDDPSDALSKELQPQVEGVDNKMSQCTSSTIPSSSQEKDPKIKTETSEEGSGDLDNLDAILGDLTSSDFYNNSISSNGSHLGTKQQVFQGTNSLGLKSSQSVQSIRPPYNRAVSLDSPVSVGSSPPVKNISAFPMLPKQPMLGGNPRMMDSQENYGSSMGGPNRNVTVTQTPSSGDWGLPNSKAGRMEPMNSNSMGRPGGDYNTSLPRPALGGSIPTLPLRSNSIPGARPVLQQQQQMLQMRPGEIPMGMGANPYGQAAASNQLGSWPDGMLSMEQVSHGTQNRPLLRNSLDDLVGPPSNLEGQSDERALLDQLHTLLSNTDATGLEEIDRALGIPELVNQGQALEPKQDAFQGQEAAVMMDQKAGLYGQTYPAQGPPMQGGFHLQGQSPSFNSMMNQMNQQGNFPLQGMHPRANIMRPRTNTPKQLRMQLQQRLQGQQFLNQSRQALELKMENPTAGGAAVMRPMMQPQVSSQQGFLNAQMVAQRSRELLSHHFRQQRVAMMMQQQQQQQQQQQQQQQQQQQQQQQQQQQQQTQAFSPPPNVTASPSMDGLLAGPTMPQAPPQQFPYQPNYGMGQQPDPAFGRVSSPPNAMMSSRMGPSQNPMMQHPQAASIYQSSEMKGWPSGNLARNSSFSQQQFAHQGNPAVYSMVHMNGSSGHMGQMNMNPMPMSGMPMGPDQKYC

[11] = molecular target: DNA dC->dU-editing enzyme APOBEC-3A (Homo sapiens, UniProt P31941); test: APOBEC3A DNA deaminase inhibitors, dose response, biochemical (AID 504722); assay type: functional
DNA dC->dU-editing enzyme APOBEC-3A, sequence (P31941 whole entry): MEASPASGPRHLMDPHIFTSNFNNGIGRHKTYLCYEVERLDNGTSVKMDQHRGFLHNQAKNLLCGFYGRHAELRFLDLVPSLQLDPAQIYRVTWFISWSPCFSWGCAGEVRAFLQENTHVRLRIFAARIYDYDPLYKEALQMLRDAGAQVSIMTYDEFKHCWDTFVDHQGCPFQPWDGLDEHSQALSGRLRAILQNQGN

[12] = molecular target: DNA dC->dU-editing enzyme APOBEC-3G (Homo sapiens, UniProt Q9HC16); test: Dose Response confirmation of small molecule APOBEC3G DNA Deaminase Inhibitors via a fluorescence-based single-stranded DNA deaminase assay. [Related pubchem assays (depositor defined):AID493012, AID493028]; assay type: functional

O=c1cc(-c2ccc(Cl)cc2)[nH][nH]1 was tested, and the IC50 [1] was 67.7 µM (inactive), the EC50 (Protein RecA) was 527 nM (active) and the IC50 [2] was 57 µM (active). The IC50 (Leucine aminopeptidase) was < 1 µM (active), the IC50 (Aspartyl aminopeptidase) was > 73.5 µM (not active) and the IC50 (Procathepsin L) was > 59.6 µM (not active). The AC50 [3] was 2.33 µM (active).
For COc1ccc(-c2cc(C(F)(F)F)n3ncc(C(=O)NCc4ccco4)c3n2)cc1, the IC50 (Estrogen receptor) was > 50 µM (not active).
In the case of O=C(Nc1cnc2ccccc2c1)c1ccco1, the IC50 (Estrogen receptor) is reported as > 50 µM (not active).
With O=C(O)[C@H](O)c1ccccc1 the IC50 [4] was > 100 µM (inactive), the IC50 [5] was > 100 µM (not active) and the IC50 [6] was > 100 µM (not active). The IC50 [7] was > 100 µM (inactive).
In the case of Cc1cc(NC(=O)CCc2ccc(C)o2)no1, the IC50 [4] is reported as > 100 µM (inactive), the IC50 [5] is reported as > 100 µM (not active) and the IC50 (Protein skinhead-1) is reported as > 100 µM (inactive). For the same compound, the IC50 [6] was > 100 µM (not active) and the IC50 [7] was > 100 µM (inactive).
In the case of CCOC(=O)C1=C(C)N=C(SCC(=O)O)NC1c1ccccc1 (centres undefined), the EC50 [8] is reported as > 79.4 µM (not active), the EC50 [9] is reported as > 79.4 µM (not active) and the EC50 [10] is reported as > 79.4 µM (not active).
In the case of Cc1cccc(Nc2nnc(SC3CCOC3=O)s2)c1C (centres undefined), the IC50 (Leucine aminopeptidase) is reported as 2.23 µM (active), the IC50 (Aspartyl aminopeptidase) is reported as > 73.5 µM (not active) and the IC50 (Procathepsin L) is reported as > 59.6 µM (not active).
Sc1nc2cc(Cl)ccc2[nH]1 was tested, and the EC50 [8] was > 79.4 µM (not active), the IC50 [11] was > 100 µM (inactive) and the EC50 [9] was > 79.4 µM (not active). For the same compound, the IC50 [12] was 5.27 µM (active) and the EC50 [10] was > 79.4 µM (not active).
